{"source": "patent US20240018125A1", "about": "“CYCLIC ISOTHIOUREA DERIVATIVES AS CXCR4 MODULATORS” (ERMIUM THERAPEUTICS, priority 2020, published 2024)", "note": "Where a name gives a salt, the structure may show the parent alone.", "data": [{"tested_on": "peripheral blood mononuclear cells (PBMCs) from healthy donors", "experiment": "IFN production by R848-activated PBMCs, quantified with twINNE luciferase reporter cell line", "format": "cell-based, human", "conditions": "Homo sapiens, PBMC; read-out: IC50 of anti-inflammatory activity (IFN production by activated PBMCs)", "method": "The blood from healthy donors was obtained from “Etablissement Français du Sang” (convention #19/EFS/029), Paris, France.\nIn vitro experiments were performed using human peripheral blood mononuclear cells (PBMCs) isolated by density centrifugation from peripheral blood leukocyte separation medium, lymphoprep (Stemcell Technologies).\nPBMCs were cultured in RPMI 1640 (Sigma-Aldrich, MO, USA) containing 10% heat-inactivated fetal bovine serum (Sigma-Aldrich, MO, USA) at 37° C./5% CO2.\nThe PBMCs used herein were prepared as described in part A “immune cells preparation”, above. PBMCs were seeded at 4.10^6/mL. Cells were pre-treated with different concentration of examples according to the invention. Cells were then stimulated with the TLR7/8 agonist resiquimod—R848 (Sigma-Aldrich, MO, USA) at 5 μg/mL.\nTo quantify the secretion of functional IFN, a biological assay based on a stable cell line where luciferase reporter gene is controlled by five Interferon-Stimulated Response Elements (twINNE cell line) was used. First, supernatants of R848-stimulated PBMCs (see part B above) were harvested after 24 h of stimulation and frozen at −20° C. for storage. Then, supernatants were dispensed in culture wells of a 96-well plate containing 35.103 twINNE cells per well in Dulbecco's Modified Eagle's Medium supplemented with 10% Foetal Bovine Serum, 100 U/mL Penicillin and 100 μg/mL Streptomycin (1% Pen-Strep) and 1 mM glutamine (Sigma-Aldrich, MO, USA) at 37° C./5% CO2. After 24 h of culture, luciferase activity was determined by adding 60 μL of Bright-Glo reagents (Promega, Wisconsin, USA) to culture wells and measuring bioluminescence with EnSpire Multimode Plate Reader (PerkinElmer, Massachusetts, USA). When stated, for IC50 calculation, dose-response curves fitted using the nonlin fit (variable slope) analysis in GraphPad Prism software (GraphPad Software, Califronia, USA).\nIFN production was quantified (as specified in Materials and Methods, part C “quantification of interferon secretion”) using twINNE reporter cell line.", "units": {"IC50": "µM"}, "values": [{"smiles": "CCCCC1CN=C(SCC2=CSC3=Nc4ccc(Cl)cc4CN23)N1", "note": "(stereo not shown) [Example 41, 3-(((5-butyl-4,5-dihydro-1H-imidazol-2-yl)thio)methyl)-7-chloro-5H-thiazolo[2,3-b]quinazoline dihydrochloride]", "IC50": "≤ 10"}, {"smiles": "Fc1cccc2c1CN=C(SCC1=CSC3=NCc4ccccc4CN13)N2", "note": "[Example 23, 3-(((5-fluoro-1,4-dihydroquinazolin-2-yl)thio)methyl)-5,10-dihydrobenzo[e]thiazolo[3,2-a][1,3]diazepine dihydrochloride]", "IC50": "≤ 10"}, {"smiles": "CC(C)N1CCN=C1SCC1=CSC2=Nc3ccc(Cl)cc3CN12", "note": "[Example 48, 7-chloro-3-(((1-isopropyl-4,5-dihydro-1H-imidazol-2-yl)thio)methyl)-5H-thiazolo[2,3-b]quinazoline dihydrochloride]", "IC50": "≤ 10"}, {"smiles": "c1ccc2c(c1)CCN=C(SCCCCN1CCCC1)N2", "note": "[Example 159, 2-((4-(pyrrolidin-1-yl)butyl)thio)-4,5-dihydro-1H-benzo[d][1,3]diazepine dihydrochloride]", "IC50": "10 to 32"}, {"smiles": "CN1CCC(CCSC2=NCc3ccccc3N2)C1", "note": "(stereo not shown) [Example 145, 2-((2-(1-methylpyrrolidin-3-yl)ethyl)thio)-1,4-dihydroquinazoline dihydrochloride]", "IC50": "10 to 32"}, {"smiles": "Fc1cccc2c1CN=C(SCC1=CSC3=Nc4ccc(Cl)cc4CN13)N2", "note": "[Example 80, 7-chloro-3-(((5-fluoro-1,4-dihydroquinazolin-2-yl)thio)methyl)-5H-thiazolo[2,3-b]quinazoline dihydrochloride]", "IC50": "≤ 10"}, {"smiles": "Clc1ccc2c(c1)CN1C(CSC3=NCCN3Cc3ccccc3)=CSC1=N2", "note": "[Example 47, 3-(((1-benzyl-4,5-dihydro-1H-imidazol-2-yl)thio)methyl)-7-chloro-5H-thiazolo[2,3-b]quinazoline dihydrochloride]", "IC50": "≤ 10"}, {"smiles": "CN1CCC(CCSC2=NCc3cc(Cl)ccc3N2)C1", "note": "(stereo not shown) [Example 177, 6-chloro-2-((2-(1-methylpyrrolidin-3-yl)ethyl)thio)-1,4-dihydroquinazoline dihydrochloride]", "IC50": "≤ 10"}, {"smiles": "c1ccc2c(c1)CCN=C(SCCN1CCCC1)N2", "note": "[Example 182, 2-((2-(pyrrolidin-1-yl)ethyl)thio)-4,5-dihydro-1H-benzo[d][1,3]diazepine dihydrochloride]", "IC50": "10 to 32"}, {"smiles": "C1=C(CSC2=NCc3ccccc3N2)N2C(=N[C@H](c3ccccc3)[C@H]2c2ccccc2)S1", "note": "(relative stereo) [Example 16, trans-3-(((3,4-dihydroquinazolin-2-yl)thio)methyl)-5,6-diphenyl-5,6-dihydroimidazo[2,1-b]thiazole dihydrochloride]", "IC50": "≤ 10"}, {"smiles": "CCCCC1CN=C(SCC2=CSC3=Nc4ccccc4CN23)N1", "note": "(stereo not shown) [Example 29, 3-(((5-butyl-4,5-dihydro-1H-imidazol-2-yl)thio)methyl)-5H-thiazolo[2,3-b]quinazoline dihydrochloride]", "IC50": "≤ 10"}, {"smiles": "C1=C(CSC2=NCC(Cc3ccccc3)N2)N2Cc3ccccc3N=C2S1", "note": "(stereo not shown) [Example 33, 3-(((5-benzyl-4,5-dihydro-1H-imidazol-2-yl)thio)methyl)-5H-thiazolo[2,3-b]quinazoline dihydrochloride]", "IC50": "≤ 10"}, {"smiles": "CN1CCCC1CCSC1=NCc2cc(Cl)ccc2N1", "note": "(stereo not shown) [Example 158, 6-chloro-2-((2-(1-methylpyrrolidin-2-yl)ethyl)thio)-1,4-dihydroquinazoline dihydrochloride]", "IC50": "≤ 10"}, {"smiles": "c1ccc2c(c1)CN=C(SCCN1CCCC1)NC2", "note": "[Example 186, 3-((2-(pyrrolidin-1-yl)ethyl)thio)-2,5-dihydro-1H-benzo[e][1,3]diazepine dihydrochloride]", "IC50": "> 32"}, {"smiles": "C1=C(CSC2=NCCc3ccccc3N2)N2CC(Cc3ccccc3)N=C2S1", "note": "(stereo not shown) [Example 88, 6-benzyl-3-(((4,5-dihydro-1H-benzo[d][1,3]diazepin-2-yl)thio)methyl)-5,6-dihydroimidazo[2,1-b]thiazole dihydrochloride]", "IC50": "≤ 10"}, {"smiles": "Clc1nccc2sc(CSC3=NCc4ccccc4N3)cc12", "note": "[Example 116, 4-chloro-2-(((1,4-dihydroquinazolin-2-yl)thio)methyl)thieno[3,2-c]pyridine dihydrochloride]", "IC50": "≤ 10"}, {"smiles": "c1ccc(N2CCC(SC3=NCc4ccccc4CN3)C2)cc1", "note": "(stereo not shown) [Example 106, 3-((1-phenylpyrrolidin-3-yl)thio)-2,5-dihydro-1H-benzo[e][1,3]diazepine hydrochloride]", "IC50": "10 to 32"}, {"smiles": "C1=C(CSC2=NCc3ccccc3N2)N2CCc3ccccc3N=C2S1", "note": "[Example 35, 3-(((3,4-dihydroquinazolin-2-yl)thio)methyl)-5,6-dihydrobenzo[d]thiazolo[3,2-a][1,3]diazepine dihydrochloride]", "IC50": "≤ 10"}, {"smiles": "CC1(C)c2ccccc2N=C2SC=C(CSC3=NCc4ccccc4N3)N21", "note": "[Example 95, 3-(((1,4-dihydroquinazolin-2-yl)thio)methyl)-5,5-dimethyl-5H-thiazolo[2,3-b]quinazoline dihydrochloride]", "IC50": "≤ 10"}, {"smiles": "Clc1ccc2c(c1)CN=C(SCC1=CSC3=NC(Cc4ccccc4)CN13)N2", "note": "(stereo not shown) [Example 114, 6-benzyl-3-(((6-chloro-1,4-dihydroquinazolin-2-yl)thio)methyl)-5,6-dihydroimidazo[2,1-b]thiazole dihydrochloride]", "IC50": "≤ 10"}, {"smiles": "c1ccc2c(c1)CN=C(SCCN1[C@@H]3CCC[C@H]1CC3)N2", "note": "[Example 133, 2-((2-((1R,5S)-8-azabicyclo[3.2.1]octan-8-yl)ethyl)thio)-3,4-dihydroquinazoline dihydrochloride]", "IC50": "≤ 10"}, {"smiles": "C1=C(CSC2=NCc3ccccc3N2)N2CC(CCc3ccccc3)N=C2S1", "note": "(stereo not shown) [Example 126, 3-(((1,4-dihydroquinazolin-2-yl)thio)methyl)-6-phenethyl-5,6-dihydroimidazo[2,1-b]thiazole dihydrochloride]", "IC50": "≤ 10"}, {"smiles": "c1ccc(CC2CN=C(SCc3ccncc3)N2)cc1", "note": "(stereo not shown) [Example 56, 4-(((5-benzyl-4,5-dihydro-1H-imidazol-2-yl)thio)methyl)pyridine dihydrochloride]", "IC50": "10 to 32"}, {"smiles": "c1ccc2c(c1)CN=C(SC1CCC[C@H]1N1CCCC1)N2", "note": "(stereo partly drawn) [Example 141, 2-(((2R)-2-(pyrrolidin-1-yl)cyclopentyl)thio)-1,4-dihydroquinazoline dihydrochloride]", "IC50": "10 to 32"}, {"smiles": "COc1ccc(CC2(C)CN=C(SCCN3CCCC3)N2)cc1", "note": "(stereo not shown) [Example 183, 5-(4-methoxybenzyl)-5-methyl-2-((2-(pyrrolidin-1-yl)ethyl)thio)-4,5-dihydro-1H-imidazole dihydrochloride]", "IC50": "> 32"}, {"smiles": "CC1(C)CN2C(CSC3=NCc4ccc(Cl)cc4N3)=CSC2=N1", "note": "[Example 6, 3-(((7-chloro-1,4-dihydroquinazolin-2-yl)thio)methyl)-6,6-dimethyl-5,6-dihydroimidazo[2,1-b]thiazole dihydrochloride]", "IC50": "≤ 10"}, {"smiles": "CC1(C)N=C(SCC2=CSC3=Nc4ccc(Cl)cc4CN23)Nc2ccccc21", "note": "[Example 75, 7-chloro-3-(((4,4-dimethyl-1,4-dihydroquinazolin-2-yl)thio)methyl)-5H-thiazolo[2,3-b]quinazoline dihydrochloride]", "IC50": "> 32"}, {"smiles": "c1ccc(CC2CN=C(SCCCCN3CCCC3)N2)cc1", "note": "(stereo not shown) [Example 181, 5-benzyl-2-((4-(pyrrolidin-1-yl)butyl)thio)-4,5-dihydro-1H-imidazole dihydrochloride]", "IC50": "> 32"}, {"smiles": "Clc1ccc2c(c1)CN1C(CSC3=NCc4cc(Cl)ccc4N3)=CSC1=N2", "note": "[Example 44, 7-chloro-3-(((6-chloro-1,4-dihydroquinazolin-2-yl)thio)methyl)-5H-thiazolo[2,3-b]quinazoline dihydrochloride]", "IC50": "> 32"}, {"smiles": "Clc1ccc2c(c1)CN1C(CSC3=NCC(Cc4ccccc4)N3)=CSC1=N2", "note": "(stereo not shown) [Example 20, 3-(((5-benzyl-4,5-dihydro-1H-imidazol-2-yl)thio)methyl)-7-chloro-5H-thiazolo[2,3-b]quinazoline dihydrochloride]", "IC50": "≤ 10"}, {"smiles": "Fc1cccc2c1CN=C(SCC1=CSC3=NC(Cc4ccccc4)CN13)N2", "note": "(stereo not shown) [Example 117, 6-benzyl-3-(((5-fluoro-1,4-dihydroquinazolin-2-yl)thio)methyl)-5,6-dihydroimidazo[2,1-b]thiazole dihydrochloride]", "IC50": "≤ 10"}, {"smiles": "c1ccc2c(c1)CN=C(SCCN1CCCCC1)N2", "note": "[Example 91, 2-((2-(piperidin-1-yl)ethyl)thio)-1,4-dihydroquinazoline dihydrochloride]", "IC50": "≤ 10"}, {"smiles": "C1=C(CSC2=NCc3ccccc3N2)N2CC(c3ccccc3)N=C2S1", "note": "(stereo not shown) [Example 120, 3-(((1,4-dihydroquinazolin-2-yl)thio)methyl)-6-phenyl-5,6-dihydroimidazo[2,1-b]thiazole dihydrochloride]", "IC50": "≤ 10"}, {"smiles": "C[C@H](CSC1=NCc2cc(Cl)ccc2N1)N1CCCC1", "note": "[Example 167, (R)-6-chloro-2-((2-(pyrrolidin-1-yl)propyl)thio)-1,4-dihydroquinazoline dihydrochloride]", "IC50": "≤ 10"}]}]}
